Results as given in the supplement of paper PMC10307832.

Key:
Assay in all cases: relative viability (nuclei count vs DMSO), 5 days (fraction); higher = more cells survive
[1] = compound: O=S(=O)(c1ccccc1)N(CC(F)(F)F)c1ccc(C(O)(C(F)(F)F)C(F)(F)F)cc1 + CCNC(=O)c1noc(-c2cc(C(C)C)c(O)cc2O)c1-c1ccc(CN2CCOCC2)cc1 [Luminespib] (partner 0.01 µM)
In short: (§1)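 Lung cancer cell lines in 1536-well plates were dosed by pin tool the day after seeding, either with one drug alone or with a fixed anchor-drug dose plus five library-drug doses (not always all listed) in √10 steps. After 5 days, cells were fixed and their nuclei stained in one step (final 0.05% Triton X-100, 1% formaldehyde, 1 ug/ml Hoechst), then counted on 4× images. Relative viability is the nuclei count in treated wells divided by that in vehicle wells. Values are medians of duplicate plates.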

RO-3306 + Pictilisib = compound: C1=CC2=C(C=CC(=C2)C=C3C(=O)NC(=NCC4=CC=CS4)S3)N=C1 [RO-3306] + CS(=O)(=O)N1CCN(Cc2cc3nc(-c4cccc5[nH]ncc45)nc(N4CCOCC4)c3s2)CC1 [Pictilisib] (partner 1 µM)
In short: as §1

RO-3306 + Linsitinib = compound: C1=CC2=C(C=CC(=C2)C=C3C(=O)NC(=NCC4=CC=CS4)S3)N=C1 [RO-3306] + C[C@]1(O)C[C@@H](c2nc(-c3ccc4ccc(-c5ccccc5)nc4c3)c3c(N)nccn32)C1 [Linsitinib] (partner 1 µM)
In short: as §1

[2] = compound: O=S(=O)(c1ccccc1)N(CC(F)(F)F)c1ccc(C(O)(C(F)(F)F)C(F)(F)F)cc1 + CC(C)C[C@H](NC(=O)[C@H](Cc1ccccc1)NC(=O)c1cnccn1)B(O)O [Bortezomib] (partner 0.002 µM)
In short: as §1

Cell Line	relative viability ([1]; first compound 0.8 µM)	relative viability ([1]; first compound 2.53 µM)	relative viability ([1]; first compound 8 µM)	relative viability (RO-3306 + Pictilisib; first compound 0.01 µM)	relative viability (RO-3306 + Pictilisib; first compound 0.03162 µM)	relative viability (RO-3306 + Pictilisib; first compound 0.1 µM)	relative viability (RO-3306 + Pictilisib; first compound 0.3162 µM)	relative viability (RO-3306 + Pictilisib; first compound 1 µM)	relative viability (RO-3306 + Linsitinib; first compound 0.01 µM)	relative viability (RO-3306 + Linsitinib; first compound 0.03162 µM)	relative viability (RO-3306 + Linsitinib; first compound 0.1 µM)	relative viability (RO-3306 + Linsitinib; first compound 0.3162 µM)	relative viability (RO-3306 + Linsitinib; first compound 1 µM)	relative viability ([2]; first compound 0.8 µM)	relative viability ([2]; first compound 2.53 µM)	relative viability ([2]; first compound 8 µM)
NCI-H1975	0.205	0.201	0.311	0.321	0.259	0.261	0.324	0.211	1.11	0.981	1.01	0.891	0.913	0.327	0.415	0.299
NCI-H1993	0.874	0.577	0.721		0.956	0.686	0.743	0.897		0.711	0.678	0.732	0.695	1.12	0.824	1.03
NCI-H2009	1	0.878	0.787	0.96	0.712	0.806	0.753	0.636	1.22	1.12	1.18	1.23	1.23	0.91	0.891	0.929
NCI-H2023	0.921	0.638	0.535	0.168	0.241	0.225	0.219	0.167	0.607	0.566	0.637	0.798	0.585	1	0.899	0.831
NCI-H2085	0.46	0.371	0.428	0.388	0.467	0.467	0.492	0.479	0.882	0.755	0.884	0.866	0.84	1.12	0.943	1.02
NCI-H2087	0.17	0.146	0.205	0.988	0.698	1.01	0.974	0.836	0.977	0.982	1.06	1.05	0.928	0.915	0.82	0.793
NCI-H2126	0.994	0.83	0.831	0.413	0.426	0.506	0.425	0.477	0.678	0.709	0.775	0.678	0.635	1.26	1.1	1.12
NCI-H2228	0.154	0.165	0.122	0.456	0.37	0.363	0.381	0.269	0.963	0.529	0.678	0.655	0.617	1.13	0.872	0.906
NCI-H2347	0.512	0.41	0.286	0.715	0.477	0.642	0.881	0.668	1.01	0.877	0.999	1.01	0.795	1.32	0.819	0.92
NCI-H2405	0.718	0.616	0.646	0.369	0.433	0.496	0.534	0.427	0.994	0.873	0.896	0.921	0.944	1.02	0.952	0.885
NCI-H3122	0.0579	0.0537	0.115	0.602	0.56	0.624	0.611	0.525	1.1	0.995	1.02	0.981	1.03	0.989	0.963	0.907
PC-3 [JPC-3]	0.654	0.717	0.679	0.725	0.717	0.672	0.769	0.882	0.947	0.968	0.996	0.963	0.971	0.642	0.743	0.744
PC-14	0.153	0.132	0.19	0.892	0.539	0.648	0.592	0.511	0.989	0.773	0.969	1.02	0.991	0.986	0.88	0.496
RERF-LC-KJ	1.29	1.17	1.17	0.563	0.487	0.591	0.552	0.435	0.956	0.831	0.902	0.974	1	1.12	0.95	1.02
SK-LU-1	0.169	0.165	0.196	0.539	0.603	0.651	0.671	0.521	1.25	1.08	1.02	1.19	0.957	1.09	1.04	1.38
SW 1573	0.266	0.218	0.207	0.536	0.406	0.534	0.534	0.39	0.869	0.721	0.805	0.762	0.727	1.34	0.936	0.811
